Source: patent US6753424B1, “Conjugates of DNA interacting groups with steroid hormones for use as nucleic acid transfection agents” (priority 1998, dated 2004)

Columns and labels:
[1] = Stability of C-21 ester versus C-21 urethane derivatives (TLC analysis); format: in vitro ADME; settings: pH 5, pH 9, proteinase K (pH 7.8, 50 μg/ml), dispase (2.4 U/ml), cellular extracts, DMEM/10% FCS
Protocol: b) water buffered to pH 9;
c) water buffered to pH 5;
e) proteinase K (pH 7.8; 50 μg/ml);
After 15 hours of incubation each sample is separately extracted with 400 μl Ethyl acetate, evaporated under N2-flow, redissolved in 20 μl Ethyl acetate and analysed by TLC analysis: stationary phase: Alugram SIL G-25 UV254 (Macherey Nagel AG); mobile phase: Ethyl acetate-MeOH-Acetone (3-1-3).

GR-GFP chimera = assay: Nuclear Transfer Induction assay (NTI), monourethane ligands, HeLa cells; format: cell-based; settings: 1 hr
Protocol: Conditions: HeLa cells are transiently transfected by CaPO4 with an expression vector encoding a GR-GFP chimera (5 μg in transfection cocktail, 4 cm diameter dishes, DMEM with 3% FCS). After 24 hour expression, ligand is added for 1 hr and cells are fixed with formaldehyde (5 min 4° C.) and inspected by fluorescence microscopy. Fluorescent cells are counted and divided into different classes according to ‘cytoplasmic’ (C) versus ‘nuclear’ (N) localisation of fluorescence.
First column: “Conditions”: Name of compounds added (marked at top: ‘//ligand’), and their concentration (in parentheses) and assay number (01 through 21).
Values are given as percentage of cells displaying the corresponding localisatidn, within each tested condition the sum is 100%.

[2] = tested on: pBR322, linearized with HindIII; assay: DNA cross-linking by 365 nm UV irradiation, alkaline gel electrophoresis; format: biochemical; settings: 5 nmoles, 1 microgram DNA, 20 min 365 nm UV
Protocol: DNA: CsCl purified pBR322, linearized with HindIII and resuspended in TE at a concentration of 30 nanogram/microliter hormone derivative: cortisol-C4psoralen resuspended in 100% methanol at a concentration of 10 exp(−3) Molar psoralen (Fluka) resuspended in 100% ethanol at a concentration of 10 exp(−3)Molar.
Irradiation buffer: 50 mM Tris (pH=7.5), 0.1 mM EDTA, 10 mM NaCl, 10 mM MgCl2 crosslinker apparatus: Bio-Link (BLX) equipped with 4 UV lamps (T-8.L, 365 nanometer nominal wave length) 1 microgram of DNA (in 33 microliter) is mixed at room temperature with 5 nmoles cortisol-C4-psoralen or plain psoralen (either in 5 microliter) and 33 microliter irradiation buffer and pipetted into a well (final volume: 71 microliter) The 96× wells plate is then covered by its plastic lid and put on top of an ice-bed in a plastic box inside the crosslinker apparatus. The cooled microwell plate is irradiated for 20 min with 365 nm UV light (corresponds to an approximate value of 16 joules/square cm). The cross-linked products are then precipitated 2 times with ethanol and resuspended in TE. The products are compared to non-irradiated samples by alkaline gel electrophoresis, where cross-linked DNA maintains its double-stranded molecular weight.

Structure (SMILES) | stability of urethane bond between steroid moiety, spacer and DNA binder [1] | C < N, percentage of cells (GR-GFP chimera; ligand 1.10-6M) [%] | C << N, percentage of cells (GR-GFP chimera; ligand 1.10-6M) [%] | C = N, percentage of cells (GR-GFP chimera; ligand 1.10-6M) [%] | C > N, percentage of cells (GR-GFP chimera; ligand 1.10-6M) [%] | C >> N, percentage of cells (GR-GFP chimera; ligand 1.10-6M) [%] | C < N, percentage of cells (GR-GFP chimera; ligand 1.10-7M) [%] | C << N, percentage of cells (GR-GFP chimera; ligand 1.10-7M) [%] | C = N, percentage of cells (GR-GFP chimera; ligand 1.10-7M) [%] | C > N, percentage of cells (GR-GFP chimera; ligand 1.10-7M) [%] | C >> N, percentage of cells (GR-GFP chimera; ligand 1.10-7M) [%] | DNA cross-linking efficiency [2]
Cc1oc2c(C)c3oc(=O)cc(C)c3cc2c1CNC(=O)CCCCCCCCCCNC(=O)OCC(=O)[C@@]1(O)CCC2C3CCC4=CC(=O)CCC4(C)C3C(O)CC21C (stereo partly shown) [CL-C12-Pso] | stable | 53 | 22 | 25 | 0 | 0 | 3 | 0 | 52 | 40 | 5 | 
Cc1oc2c(C)c3oc(=O)cc(C)c3cc2c1CNC(=O)CCNC(=O)OCC(=O)[C@@]1(O)[C@H](C)CC2C3CCC4=CC(=O)C=CC4(C)[C@@]3(F)C(O)CC21C (stereo partly shown) [DEX-C4-Pso] | stable | 15 | 5 | 60 | 20 | 0 | 5 | 0 | 40 | 35 | 20 | 
Cc1oc2c(C)c3oc(=O)cc(C)c3cc2c1CNC(=O)OCCOCCNC(=O)OCCOCCNC(=O)OCC(=O)[C@@]1(O)[C@H](C)CC2C3CCC4=CC(=O)C=CC4(C)[C@@]3(F)C(O)CC21C (stereo partly shown) [DEX-O-O-PSO] | stable |  |  |  |  |  |  |  |  |  |  | 
Cc1oc2c(C)c3oc(=O)cc(C)c3cc2c1CNC(=O)CCNC(=O)OCC(=O)[C@@]1(O)CCC2C3CCC4=CC(=O)CCC4(C)C3C(O)CC21C (stereo partly shown) [CL-C4-Pso] |  | 63 | 8 | 29 | 0 | 0 | 5 | 0 | 75 | 20 | 0 | as efficient as cross-linking with free psoralen
